One may read the IC50 as the point on the concentration scale where inhibition reaches its midpoint.

For 20 compounds, IC50 results are on record in patent US7514438B2, “Melanin concentrating hormone receptor antagonist” (Amgen, Inc., priority 2003, dated 2009).

The target in test [1] is T1, rat MCH 1 receptor (rMCH1R) (Rattus norvegicus, UniProt P97639).
T1 construct: expressed in transfected cells; host or cells: HEK 293 (membranes)
Description: 125I-MCH ligand binding assay, rMCH. As to conditions: HEK 293 membranes, 0.2 nM 125I native-MCH, read-out: IC50 in the rMCH binding assay. As to the method:
(§1) Human embryonic kidney cells (293 total) expressing either human, rat, or mouse MCH receptor were harvested from 150 mm culture dishes using PBS. Spinning at 1500 rpm for 2 minutes initially pelleted cells. The resulting pellet was then homogenized in 15 mL ice cold sucrose buffer (25 mM HEPES, 0.3 M sucrose, pH 7.4) with a motorized, glass fitted, Teflon® homogenizer. The homogenate was centrifuged at 48,000×g at 4° C. for 10 minutes, resuspended in 15 mL assay buffer (25 mM HEPES, 10 mM mgCl2, 0.2% BSA, 0.1 mg/mL STI, 0.1 mg/mL Pefabloc®, 1 μM Phosphoramidon, pH 7.4) with a Tissue-Tearor® (Biospec Products) and centrifuged again at 48,000×g for 10 minutes. The pellet was homogenized for a third time in 15 mL assay buffer using the Tissue-Tearor® and again centrifuged at 48,000×g for 10 minutes. The resulting pellet was resuspended in assay buffer at a wet weight concentration of 10-20 mg/mL.
(§2) Binding assays were determined as described below using mouse, rat or human MCH 1 receptors (mMCH1R, rMCH1R, and hMCH1R, respectively) expressed in HEK 293; IC50 values were calculated.
(§3) Binding assays were performed in 96-well U-bottom plates. Membranes (100 μg tissue) were incubated at 30° C. for 90 minutes in assay buffer with various peptides in the presence of 0.2 nM ^125I native-MCH (Perkin-Elmer Life Sciences, Boston, Mass.) in 100 μL total volume. Non-specific binding was assessed in the presence of 1 μM cold native-MCH. The reaction was terminated by rapid filtration through Unfilter-96 GF/C glass fiber filter plates (FilterMate® 196 Harvester, Packard Instrument Co., Meriden, Conn.) pre-soaked in PBS/0.5% BSA, followed by three washes with 300 μL ice-cold water. Bound radioactivity was determined using a TopCount® microplate scintillation and luminescence counter (Packard Instrument Co., Meriden, Conn.). Nonlinear regression analyses of drug concentration curves were performed using GraphPad Prism® (GraphPad Software, Inc., San Diego, Calif.).

Test [2] concerns the target T2, human MCH 1 receptor (hMCH1R) (Homo sapiens, UniProt Q99705).
T2 construct: expressed in transfected cells; host or cells: HEK 293 (membranes)
The experiment in a line: 125I-MCH ligand binding assay, hMCH. The conditions noted are these: HEK 293 membranes, 0.2 nM 125I native-MCH, read-out: IC50 in the hMCH binding assay. Here is the method: as §1, §2, §3

Where two headings read alike, the source gives them in different places. A value given as a limit tells only on which side of the number the result lay.

T1 sequence (P97639 whole entry): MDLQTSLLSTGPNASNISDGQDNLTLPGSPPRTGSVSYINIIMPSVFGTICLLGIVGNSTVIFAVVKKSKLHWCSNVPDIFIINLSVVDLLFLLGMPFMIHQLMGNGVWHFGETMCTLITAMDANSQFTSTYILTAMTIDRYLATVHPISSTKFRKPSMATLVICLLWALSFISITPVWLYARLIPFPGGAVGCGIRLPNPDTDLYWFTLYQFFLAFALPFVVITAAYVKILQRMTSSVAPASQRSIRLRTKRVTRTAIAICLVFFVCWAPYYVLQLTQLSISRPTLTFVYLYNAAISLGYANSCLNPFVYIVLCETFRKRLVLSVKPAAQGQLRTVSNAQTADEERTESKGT
T2 sequence (Q99705 whole entry): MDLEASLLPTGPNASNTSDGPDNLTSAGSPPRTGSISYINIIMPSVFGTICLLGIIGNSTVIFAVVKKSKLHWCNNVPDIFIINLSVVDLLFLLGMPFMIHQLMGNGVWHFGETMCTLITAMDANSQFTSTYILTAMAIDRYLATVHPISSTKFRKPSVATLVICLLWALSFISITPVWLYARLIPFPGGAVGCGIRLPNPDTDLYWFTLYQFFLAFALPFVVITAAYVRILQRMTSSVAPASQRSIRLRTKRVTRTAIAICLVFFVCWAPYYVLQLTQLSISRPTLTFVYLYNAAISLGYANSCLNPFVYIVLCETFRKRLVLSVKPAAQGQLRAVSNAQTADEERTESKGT

In the case of `COC(=O)C(Cc1ccccc1)n1nnnc1[C@H](c1ccccc1)N1CCN(C/C=C/c2ccccc2)CC1` (stereo in doubt) [Compound 26, 3-phenyl-2-(5-{phenyl-[4-(3-phenylallyl)piperazin-1-yl]methyl}tetrazol-1-yl)propionic acid methyl ester], the IC50 in test [1] (100 μM or less list) and in test [2] (100 μM or less list) was at most 100 µM throughout.

For the compound `FC(F)(F)c1cccc([C@@H](c2nnnn2-c2c(Cl)cccc2Cl)N2CCN(C/C=C/c3ccccc3)CC2)c1` (racemic) [Compound 164, 1-[[1-(2,6-dichlorophenyl)-1H-tetrazol-5-yl]-(3-trifluoromethylphenyl)methyl]-4-(3-phenylallyl)piperazine], the IC50 in test [1] (100 μM or less list) and in test [2] (100 μM or less list) was at most 100 µM in each case.

Regarding `C(=C\c1ccccc1)/CN1CCN([C@@H](c2ccccc2)c2nnnn2CCc2c[nH]c3ccccc23)CC1` (racemic) [Compound 29, 3-[2-(5-{phenyl-[4-(3-phenylallyl)piperazin-1-yl]methyl}tetrazol-1-yl)ethyl]-1H-indole], the IC50 in test [1] (100 μM or less list) and in test [2] (100 μM or less list) was at most 100 µM throughout.

With `Cc1cccc(C)c1-n1nnnc1[C@H](c1ccccc1C#N)N1CCN(C/C=C/c2ccccc2)CC1` (racemic) [Compound 80, 2-{[1-(2,6-dimethylphenyl)-1H-tetrazol-5-yl]-[4-(3-phenylallyl)piperazin-1-yl]methyl}benzonitrile], the IC50 in test [1] (100 μM or less list) and in test [2] (100 μM or less list) was at most 100 µM each time.

In the case of `C(=C\c1ccccc1)/CN1CCN([C@@H](c2ccccc2)c2nnnn2Cc2ccccc2)CC1` (racemic) [Compound 15, 1-[(1-benzyl-1H-tetrazol-5-yl)phenylmethyl]-4-(3-phenylallyl)piperazine], the IC50 in test [1] (100 μM or less list) and in test [2] (100 μM or less list) was at most 100 µM each time.

For `CC(C)n1nnnc1[C@H](c1ccccc1)N1CCN(C/C=C/c2ccccc2)CC1` (racemic) [Compound 19, 1-[(1-isopropyl-1H-tetrazol-5-yl)phenylmethyl]-4-(3-phenylallyl)piperazine], the IC50 in test [1] (100 μM or less list) and in test [2] (100 μM or less list) was at most 100 µM each time.

`C(=C\c1ccccc1)/CN1CCN([C@@H](c2ccccc2)c2nnnn2-c2cccc3c2CCCC3)CC1` (racemic) [Compound 38, 1-(3-phenylallyl)-4-{phenyl-[1-(5,6,7,8-tetrahydronaphthalen-1-yl)-1H-tetrazol-5-yl]methyl}piperazine]: the IC50 in test [1] (100 μM or less list) and in test [2] (100 μM or less list) was at most 100 µM in each case.

For `C(=C\c1ccccc1)/CN1CCN([C@@H](c2ccccc2)c2nnnn2CCc2ccccc2)CC1` (racemic) [Compound 35, 1-[(1-phenethyl-1H-tetrazol-5-yl)phenylmethyl]-4-(3-phenylallyl) piperazine], the IC50 in test [1] (100 μM or less list) and in test [2] (100 μM or less list) was at most 100 µM each time.

Regarding `Clc1ccc(CCn2nnnc2[C@H](c2ccccc2)N2CCN(C/C=C/c3ccccc3)CC2)cc1` (racemic) [Compound 39, 1-({1-[2-(4-chlorophenyl)ethyl]-1H-tetrazol-5-yl}phenylmethyl)-4-(3-phenylallyl)piperazine], the IC50 in test [1] (100 μM or less list) and in test [2] (100 μM or less list) was at most 100 µM throughout.

As for `Cc1cccc(C)c1-n1nnnc1[C@H](c1cccc(Oc2ccc(Cl)c(Cl)c2)c1)N1CCN(C/C=C/c2ccccc2)CC1` (racemic) [Compound 72, 1-{[3-(3,4-dichlorophenoxy)phenyl]-[1-(2,6-dimethylphenyl)-1H-tetrazol-5-yl]methyl}-4-(3-phenylallyl) piperazine], the IC50 in test [1] (100 μM or less list) and in test [2] (100 μM or less list) was at most 100 µM each time.

Take `Cc1cccc(C)c1-n1nnnc1[C@H](c1ccc(-c2cccc(C(F)(F)F)c2)o1)N1CCN(C/C=C/c2ccccc2)CC1` (racemic) [Compound 68, 1-{[1-(2,6-dimethylphenyl)-1H-tetrazol-5-yl]-[5-(3-trifluoromethylphenyl)furan-2-yl]methyl}-4-(3-phenylallyl)piperazine]: the IC50 in test [1] (100 μM or less list) and in test [2] (100 μM or less list) was at most 100 µM each time.

For the compound `CC(C)(C)CC(C)(C)n1nnnc1[C@H](c1ccccc1)N1CCN(C/C=C/c2ccccc2)CC1` (racemic) [Compound 22, 1-(3-phenylallyl)-4-{phenyl-[1-(1,1,3,3-tetramethylbutyl)-1H-tetrazol-5-yl]methyl}piperazine], the IC50 in test [1] (100 μM or less list) and in test [2] (100 μM or less list) was at most 100 µM each time.

As for `C(=C\c1ccccc1)/CN1CCN([C@@H](c2ccccc2)c2nnnn2CC2CCCO2)CC1` (stereo in doubt) [Compound 33, 1-(3-phenylallyl)-4-{phenyl-[1-(tetrahydrofuran-2-ylmethyl)-1H-tetrazol-5-yl]methyl}piperazine], the half-maximal inhibitory concentration (IC50) in test [1] (100 μM or less list) and in test [2] (100 μM or less list) was at most 100 µM in each case.

With `Cc1cccc(C)c1-n1nnnc1[C@H](c1ccc(/C=C/c2ccccc2)cc1)N1CCN(C/C=C/c2ccccc2)CC1` (racemic) [Compound 52, 1-[[1-(2,6-dimethylphenyl)-1H-tetrazol-5-yl]-(4-styrylphenyl)methyl]-4-(3-phenylallyl)piperazirie], the IC50 in test [1] (100 μM or less list) and in test [2] (100 μM or less list) was at most 100 µM throughout.

With `Cc1cccc(C)c1-n1nnnc1[C@H](c1ccc(F)cc1)N1CCN(C/C=C/c2ccccc2)CC1` (racemic) [Compound 58, 1-[[1-(2,6-dimethylphenyl)-1H-tetrazol-5-yl]-(4-fluorophenyl)methyl]-4-(3-phenylallyl)piperazine], the IC50 in test [1] (100 μM or less list) and in test [2] (100 μM or less list) was at most 100 µM throughout.

For `Cc1cccc(C)c1-n1nnnc1[C@H](c1cccc2ccccc12)N1CCN(C/C=C/c2ccccc2)CC1` (racemic) [Compound 46, 1-{[1-(2,6-dimethyiphenyl)-1H-tetrazol-5-yl]naphthalen-1-ylmethyl}-4-(3-phenylallyl)piperazine], the IC50 in test [1] (100 μM or less list) and in test [2] (100 μM or less list) was at most 100 µM each time.

Regarding `Cc1cccc(C)c1-n1nnnc1[C@H](c1cccnc1)N1CCN(C/C=C/c2ccccc2)CC1` (racemic) [Compound 74, 1-{[1-(2,6-dimethylphenyl)-1H-tetrazol-5-yl]pyridin-3-ylmethyl}-4-(3-phenylallyl)piperazine], the IC50 in test [1] (100 μM or less list) and in test [2] (100 μM or less list) was at most 100 µM each time.

As to `Cc1ccc(Oc2cccc([C@@H](c3nnnn3-c3c(C)cccc3C)N3CCN(C/C=C/c4ccccc4)CC3)c2)cc1` (racemic) [Compound 73, 1-[[1-(2,6-dimethylphenyl)-1H-tetrazol-5-yl]-(3-p-tolyloxyphenyl)methyl]-4-(3-phenylallyl)piperazine], the IC50 in test [1] (100 μM or less list) and in test [2] (100 μM or less list) was at most 100 µM each time.

For `Cc1cccc(C)c1-n1nnnc1[C@H](c1cccc(C(F)(F)F)c1)N1CCN(C/C=C/c2ccccc2)CC1` (stereo in doubt) [Compound 142, 1-[[1-(2,6-dimethylphenyl)-1H-tetrazol-5-yl]-(3-trifluoromethylphenyl)methyl]-4-(3-phenylallyl)piperazine], the IC50 in test [1] (100 nM or less list) is at most 0.1 µM; in test [1] (100 μM or less list), at most 100 µM; in test [2] (100 nM or less list), at most 0.1 µM; in test [2] (100 μM or less list) it was at most 100 µM.

`COC(=O)C(Cc1c[nH]c2ccccc12)n1nnnc1[C@H](c1ccccc1)N1CCN(C/C=C/c2ccccc2)CC1` (stereo in doubt) [Compound 31, 3-(1H-indol-3-yl)-2-(5-{phenyl-[4-(3-phenylallyl)piperazin-1-yl]methyl}tetrazol-1-yl)propionic acid methyl ester]: the IC50 in test [1] (100 μM or less list) and in test [2] (100 μM or less list) was at most 100 µM each time.
